Test results: ChEMBL document CHEMBL1201862, “PubChem BioAssay data set” (2004)
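Cells were grown in 96-well plates and exposed to each compound for 48 hours at five concentrations; endpoints were interpolated linearly between bracketing concentrations, or set to the highest concentration if not reached. Abbreviation: GI50, concentration required for 50% inhibition of growth.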 Activity calls are given as the source filed them. Rule as the data show it: active = GI50 up to about 1.1 µM and inactive = higher.

Experiments:
Assay in all cases: growth of human tumour cells (NCI), 48 h
[1] = system: OVCAR-8
[2] = system: HOP-62
[3] = system: NCI-H460
[4] = system: SF-268
[5] = system: CAKI-1
[6] = system: OVCAR-5
[7] = system: SN12C
[8] = system: K562
[9] = system: OVCAR-3
[10] = system: MDA-MB-435
[11] = system: UO-31
[12] = system: SR
[13] = system: RXF 393
[14] = system: HCC 2998
[15] = system: HOP-92
[16] = system: IGROV-1
[17] = system: HL-60
[18] = system: HCT-15
[19] = system: SK-MEL-2
[20] = system: A498

Row | Compound | GI50 [1] | GI50 [2] | GI50 [3] | GI50 [4] | GI50 [5] | GI50 [6] | GI50 [7] | GI50 [8] | GI50 [9] | GI50 [10] | GI50 [11] | GI50 [12] | GI50 [13] | GI50 [14] | GI50 [15] | GI50 [16] | GI50 [17] | GI50 [18] [µM] | GI50 [19] | GI50 [20]
1 | Oc1ccccc1/C=N/Nc1nc(N/N=C/c2ccccc2O)nc(N/N=C/c2ccccc2O)n1 | > 100 µM (inactive) | 44.6 µM (inactive) | 44.8 µM (inactive) | > 100 µM (inactive) | > 100 µM (inactive) | > 100 µM (inactive) | > 100 µM (inactive) | > 100 µM (inactive) | 29.2 µM (inactive) | > 100 µM (inactive) | > 100 µM (inactive) | > 100 µM (inactive) | 87.1 µM (inactive) | > 100 µM (inactive) | 21.1 µM (inactive) | 45.4 µM (inactive) | > 100 µM (inactive) | 13.3 | 43.6 µM (inactive) | > 100 µM (inactive)
2 | CC(=O)OCC1OC(O[C@@H]2C[C@H]3C(C)(C)[C@H](OC(C)=O)CC[C@]3(C)[C@H]3CC[C@@]45C[C@H](O)C[C@H](C)[C@@H]4CC=C5[C@@]32C)C(O)C(O)C1O (stereo not given in full) | 4.83 µM (inactive) | 9.53 µM (inactive) | 3.26 µM (inactive) | 4.01 µM (inactive) | 11.6 µM (inactive) | 2.18 µM (inactive) | 4.08 µM (inactive) | 2.61 µM (inactive) | 3.75 µM (inactive) | 3.27 µM (inactive) | 13.1 µM (inactive) | 2.07 µM (inactive) | 2.11 µM (inactive) | 2.03 µM (inactive) | 4.01 µM (inactive) | 2.71 µM (inactive) | 1.84 µM (inactive) | 11.2 | 2.33 µM (inactive) | 6.67 µM (inactive)
3 | CCN(CC)CCOc1ccc(N2Cc3cc(OC)c(OC)cc3C2=O)cc1 | > 100 µM (inactive) | > 100 µM (inactive) | > 100 µM (inactive) | > 100 µM (inactive) | > 100 µM (inactive) | > 100 µM (inactive) | > 100 µM (inactive) | > 100 µM (inactive) | > 100 µM (inactive) | > 100 µM (inactive) | < 0.01 µM (active) | > 100 µM (inactive) | > 100 µM (inactive) | > 100 µM (inactive) | > 100 µM (inactive) | > 100 µM (inactive) | > 100 µM (inactive) | > 100 | > 100 µM (inactive) | > 100 µM (inactive)
4 | C1=CC2C=CC(C=C1)P2c1ccccc1 (stereo not given) | > 100 µM (inactive) | > 100 µM (inactive) | > 100 µM (inactive) | > 100 µM (inactive) | > 100 µM (inactive) | > 100 µM (inactive) | > 100 µM (inactive) | > 100 µM (inactive) | > 100 µM (inactive) | > 100 µM (inactive) | > 100 µM (inactive) | > 100 µM (inactive) | > 100 µM (inactive) | 0.0175 µM (active) | > 100 µM (inactive) | > 100 µM (inactive) | > 100 µM (inactive) | > 100 | > 100 µM (inactive) | > 100 µM (inactive)
5 | COc1ccc(C(SCC(N)C(=O)O)(c2ccc(OC)cc2)c2ccc(OC)cc2)cc1 (stereo not given) | 12.4 µM (inactive) | 13 µM (inactive) | 11.3 µM (inactive) | 13.4 µM (inactive) | 17.3 µM (inactive) | 13.9 µM (inactive) | 12.7 µM (inactive) | 10 µM (inactive) | 12.2 µM (inactive) | 2.97 µM (inactive) | 11.9 µM (inactive) | 6.27 µM (inactive) | 8.47 µM (inactive) | 12.9 µM (inactive) | 14.7 µM (inactive) | 13.3 µM (inactive) | 14 µM (inactive) | 11.6 | 12 µM (inactive) | 14.7 µM (inactive)
6 | Cc1ccc(/N=N/c2ccc(O)c(CN(C)C)c2)cc1 | 21.4 µM (inactive) | 12.6 µM (inactive) | 16.5 µM (inactive) | 20.2 µM (inactive) | 21.5 µM (inactive) | 14.4 µM (inactive) | 35.8 µM (inactive) | 20 µM (inactive) | 15.7 µM (inactive) | 17.3 µM (inactive) | 16 µM (inactive) | 24.8 µM (inactive) | 4.66 µM (inactive) | 15.5 µM (inactive) | 12.6 µM (inactive) | 15.1 µM (inactive) | 18.1 µM (inactive) | 20.6 | 15.2 µM (inactive) | 19.1 µM (inactive)
7 | O=C1CCN2c3ccccc3[C@H]3Cc4cccc(c4[C@@H]2C3)CCO1 | 31.7 µM (inactive) | 56.2 µM (inactive) | > 100 µM (inactive) | 72.4 µM (inactive) | 41.9 µM (inactive) | > 100 µM (inactive) | 16.3 µM (inactive) | 21.8 µM (inactive) | 26.5 µM (inactive) | 40.4 µM (inactive) | 22.9 µM (inactive) | 26.1 µM (inactive) | 47.4 µM (inactive) | > 100 µM (inactive) | 31 µM (inactive) | 22 µM (inactive) | 25.5 µM (inactive) | 26.9 | 38 µM (inactive) | 56.5 µM (inactive)
8 | CCO/N=C\c1ccc2oc(-c3ccccc3)cc(=O)c2c1 | 0.465 µM (active) | 0.46 µM (active) | 0.136 µM (active) | 0.74 µM (active) | 0.427 µM (active) | 2.56 µM (inactive) | 0.303 µM (active) | 0.034 µM (active) | 0.0778 µM (active) | 0.0133 µM (active) | 0.394 µM (active) | < 0.0135 µM (active) | 0.261 µM (active) | 0.31 µM (active) | 3.26 µM (inactive) | 0.24 µM (active) | 0.135 µM (active) | 0.0475 | 0.127 µM (active) | 0.312 µM (active)
9 | CCOC(=O)CCC(NC(=O)c1ccc(Nc2nc3cc(C(F)(F)F)ccc3nc2-c2ccccc2)cc1)C(=O)OCC (stereo not given) | 20.6 µM (inactive) | > 100 µM (inactive) | 24.4 µM (inactive) | 22.3 µM (inactive) | 20.5 µM (inactive) | > 100 µM (inactive) | 19.3 µM (inactive) | 23.4 µM (inactive) | > 100 µM (inactive) | 28.8 µM (inactive) | 14.6 µM (inactive) | 13.2 µM (inactive) | > 100 µM (inactive) | 24.3 µM (inactive) | 17.7 µM (inactive) | 14.7 µM (inactive) | 36.1 µM (inactive) | 24.7 | > 100 µM (inactive) | 5.35 µM (inactive)
10 | CC1(C)OC[C@@H](/C=C\CCO[Si](c2ccccc2)(c2ccccc2)C(C)(C)C)N1C(=O)c1ccccc1 | 15.8 µM (inactive) | 25.4 µM (inactive) | 3.79 µM (inactive) | 13.9 µM (inactive) | 9.4 µM (inactive) | 16.3 µM (inactive) | 11.1 µM (inactive) | 3.1 µM (inactive) | 7.5 µM (inactive) | 13.2 µM (inactive) | 11.9 µM (inactive) | 2.79 µM (inactive) | 6.84 µM (inactive) | 7.46 µM (inactive) | 14.4 µM (inactive) | 28.6 µM (inactive) | 2.51 µM (inactive) | 5.13 | 5.24 µM (inactive) | 13.9 µM (inactive)
11 | O=C(/C(=C/c1cccs1)c1ccccc1)c1ccccc1 | > 100 µM (inactive) | 7.21 µM (inactive) | > 100 µM (inactive) | > 100 µM (inactive) | > 100 µM (inactive) | > 100 µM (inactive) | 82.2 µM (inactive) | > 100 µM (inactive) | > 100 µM (inactive) | > 100 µM (inactive) | > 100 µM (inactive) | 34.3 µM (inactive) | 4.99 µM (inactive) | > 100 µM (inactive) | > 100 µM (inactive) | > 100 µM (inactive) | 47.4 µM (inactive) | > 100 | 40.2 µM (inactive) | > 100 µM (inactive)
12 | O=S(=O)(O)c1ccc2cccc(/N=N\c3c(O)ccc4ccccc34)c2c1 | > 100 µM (inactive) | > 100 µM (inactive) | > 100 µM (inactive) | > 100 µM (inactive) | > 100 µM (inactive) | > 100 µM (inactive) | > 100 µM (inactive) | > 100 µM (inactive) | > 100 µM (inactive) | > 100 µM (inactive) | > 100 µM (inactive) | > 100 µM (inactive) | > 100 µM (inactive) | > 100 µM (inactive) | > 100 µM (inactive) | > 100 µM (inactive) | > 100 µM (inactive) | > 100 | > 100 µM (inactive) | > 100 µM (inactive)
13 | COc1ccc2c(c1)/C(=C\c1c(Cl)n(-c3ccccc3)c3ccccc13)C(=O)N2 | 5.77 µM (inactive) | 12.2 µM (inactive) | 5.07 µM (inactive) | 2.85 µM (inactive) | 4.08 µM (inactive) | 12.4 µM (inactive) | 13.6 µM (inactive) | 2.19 µM (inactive) | 2.25 µM (inactive) | 1.64 µM (inactive) | 1.53 µM (inactive) | 2.59 µM (inactive) | 2.45 µM (inactive) | 4.89 µM (inactive) | 2.08 µM (inactive) | 4.12 µM (inactive) | 2.72 µM (inactive) | 2.36 | 6.73 µM (inactive) | 5.27 µM (inactive)
